Source: US10307413B2, “Tetrahydro- and dihydro-isoquinoline PRMT5 inhibitors and uses thereof” (Epizyme, Inc., priority 2013, dated 2019)
Read-outs that look alike come from different tables or passages of the source.

Key:
Z-138 cell line = assay: Z-138 Proliferation Assay (Cell Titer Glo, 5 days); type: cell-based; settings: Homo sapiens, 120 h; Z-138 cells, 5 days; read-out: Proliferation EC50
Description: RPMI/Glutamax medium, penicillin-streptomycin, heat inactivated fetal bovine serum were purchased from Life Technologies, Grand Island, N.Y., USA. V-bottom polypropylene 384-well plates were purchased from Greiner Bio-One, Monroe, N.C., USA. Cell culture 384-well white opaque plates were purchased from Perkin Elmer, Waltham, Mass., USA. Cell-Titer Glo® was purchased from Promega Corporation, Madison, Wis., USA. SpectraMax M5 plate reader was purchased from Molecular Devices LLC, Sunnyvale, Calif., USA.
A compound source plate was prepared by performing triplicate nine-point 3-fold serial dilutions in DMSO, beginning at 10 mM (final top concentration of compound in the assay was 20 μM and the DMSO was 0.2%). A 100 nL aliquot from the compound stock plate was added to its respective well in the cell plate. […] After addition of compounds, assay plates were incubated for 5 days at 37° C., 5% CO2, relative humidity >90%.
Cell viability was measured by quantitation of ATP present in the cell cultures, adding […] of Cell Titer Glo® reagent to the cell plates. Luminescence was read in the SpectraMax M5 microplate reader. The concentration of compound inhibiting cell viability by 50% was determined using a 4-parametric fit of the normalized dose response curves.

[1] = tested on: symmetric di-methyl arginine in Z-138 cells; assay: Z-138 Methylation Assay (In Cell Western for symmetric di-methyl arginine and DNA content); type: cell-based; settings: read-out: ICW EC50
Description: [formula] [formula] Where top and bottom are the normally allowed to float, but may be fixed at 100 or 0 respectively in a 3-parameter fit. The Hill Coefficient normally allowed to float but may also be fixed at 1 in a 3-parameter fit. Y is the % inhibition and X is the compound concentration.
RPMI/Glutamax medium, penicillin-streptomycin, heat inactivated fetal bovine serum, and D-PBS were purchased from Life Technologies, Grand Island, N.Y., USA. Odyssey blocking buffer, 800CW goat anti-rabbit IgG (H+L) antibody, and Licor Odyssey infrared scanner were purchased from Licor Biosciences, Lincoln, Nebr., USA. Symmetric di-methyl arginine antibody was purchased from EMD Millipore, Billerica, Mass., USA. 16% Paraformaldehyde was purchased from Electron Microscopy Sciences, Hatfield, Pa., USA.
Cell Treatment, in Cell Western (ICW) for Detection of Symmetric Di-Methyl Arginine and DNA Content.
Z-138 cells were seeded in assay medium at a concentration of 50,000 cells per mL to a 384-well cell culture plate with 50 μL per well. Compound (100 nL) from 384 well source plates was added directly to 384 well cell plate. Plates were incubated at 37° C., 5% CO2 for 96 hours. […] Plates were incubated at room temperature for 30 minutes then incubated at 37° C., 5% CO2 for 5 hours. After the incubation, 40 μL per well of 8% paraformaldehyde in PBS (16% paraformaldahyde was diluted to 8% in PBS) was added to each plate and incubated for 30 minutes. […] Next 30 μL per well of Odyssey blocking buffer were added to each plate and incubated 1 hour at room temperature. Blocking buffer was removed and 20 μL per well of primary antibody was added (symmetric di-methyl arginine diluted 1:100 in Odyssey buffer with 0.1% Tween 20 (v/v)) and plates were incubated overnight (16 hours) at 4° C. Plates were washed 5 times with 100 μL per well of wash buffer. Next 20 μL per well of secondary antibody was added (1:200 800CW goat anti-rabbit IgG (H+L) antibody, 1:1000 DRAQ5 (Biostatus limited) in Odyssey buffer with 0.1% Tween 20 (v/v)) and incubated for 1 hour at room temperature. The plates were washed 5 times with 100 μL per well wash buffer then 1 time with 100 μL per well of water. Plates were allowed to dry at room temperature then imaged on the Licor Odyssey machine which measures integrated intensity at 700 nm and 800 nm wavelengths. Both 700 and 800 channels were scanned.
First, the ratio for each well was determined by:
Each plate included fourteen control wells of DMSO only treatment (minimum inhibition) as well as fourteen control wells for maximum inhibition treated with 3 μM of a reference compound (Background wells). The average of the ratio values for each control type was calculated and used to determine the percent inhibition for each test well in the plate. Reference compound was serially diluted three-fold in DMSO for a total of nine test concentrations, beginning at 3 μM. Percent inhibition was determined and IC50 curves were generated using triplicate wells per concentration of compound. Percent Inhibition=100−

EC50 ([1]; Homo sapiens)	EC50 [1]	SMILES	EC50 (Z-138 cell line)
101 to 1000 nM	–	O=C(NC[C@H](O)CN1CCc2ccccc2C1)c1cc2ccccc2o1 [Compound 271]	1000 to 10000 nM
101 to 1000 nM	–	O=C(NC[C@H](O)CN1CCc2ccccc2C1)c1ccnc(NCC2CNCCO2)c1 (stereo partly shown) [Compound 238]	10000 to 50000 nM
< 100 nM	–	CN(c1cc(C(=O)NC[C@H](O)CN2CCc3ccccc3C2)ncn1)C1CCOCC1 [Compound 261]	1000 to 10000 nM
< 100 nM	–	CC(=O)N1CCC(Oc2cc(C(=O)NC[C@H](O)CN3CCc4ccccc4C3)ncn2)CC1 [Compound 287]	101 to 1000 nM
< 100 nM	–	CC(=O)N1CCC(Nc2cncc(C(=O)NC[C@H](O)CN3CCc4ccccc4C3)c2)CC1 [Compound 302]	< 100 nM
< 100 nM	–	O=C(NCC(O)CN1CCc2ccccc2C1)c1ccnc(NC2CCOCC2)c1 (stereo not shown) [Compound 74]	101 to 1000 nM
< 100 nM	–	O=C(NCC(O)CN1CCc2ccccc2C1)c1cccc(-c2ccccn2)c1 (stereo not shown) [Compound 1, N-(3-(3,4-dihydroisoquinolin-2(1H)-yl)-2-hydroxypropyl)-3-(pyridin-2-yl)benzamide]	1000 to 10000 nM
101 to 1000 nM	–	NC(=O)CCCN1CCN(Cc2cccc(C(=O)NCC(O)CN3CCc4ccccc4C3)c2)CC1 (stereo not shown) [Compound 159]	1000 to 10000 nM
101 to 1000 nM	–	Cn1ccnc1C(=O)NCC(O)CN1CCc2ccccc2C1 (stereo not shown) [Compound 171]	1000 to 10000 nM
< 100 nM	–	CS(=O)(=O)N1CCC(Nc2cncc(C(=O)NC[C@H](O)CN3CCc4ccccc4C3)c2)CC1 [Compound 301]	101 to 1000 nM
< 100 nM	–	O=C(NC[C@@H](O)CN1CCc2ccccc2C1)c1ccnc(NC2CCOCC2)c1 [Compound 184]	1000 to 10000 nM
< 100 nM	–	O=C(NC[C@H](O)CN1CCc2ccccc2C1)c1ccnc(NCCNCC(F)(F)F)c1 [Compound 316]	1000 to 10000 nM
1000 to 10000 nM	–	COCCCNc1cccc(C(=O)NCC(O)CN2CCc3ccccc3C2)c1 (stereo not shown) [Compound 69]	> 20000 nM
< 100 nM	–	CN1CCCC(CNc2cc(C(=O)NC[C@H](O)CN3CCc4ccccc4C3)ccn2)C1 (stereo partly shown) [Compound 264]	1000 to 10000 nM
–	–	CN1CCC(Oc2cccc(C(=O)NCC(O)CN3CCc4ccccc4C3)c2)C1 (stereo not shown) [Compound 134]	10000 to 50000 nM
–	–	O=C(NC[C@H](O)CN1CCc2ccccc2C1)c1cccc(NC2CCOCC2)c1 [Compound 44, (S)—N-(3-(3,4-dihydroisoquinolin-2(1H)-yl)-2-hydroxypropyl)-3-((tetrahydro-2H-pyran-4-yl)amino)benzamide]	101 to 1000 nM
101 to 1000 nM	–	O=C(NCC(O)CN1CCc2ccccc2C1)c1nccc(NC2CCOCC2)n1 (stereo not shown) [Compound 76]	–
101 to 1000 nM	–	O=C(NCC(O)CN1CCc2ccccc2C1)c1cncc(NC2CCOCC2)n1 (stereo not shown) [Compound 75]	–
1000 to 10000 nM	–	CC1=NN(c2ccc(C(=O)NCC(O)CN3CCc4ccccc4C3)cc2)C(=O)C1 (stereo not shown) [Compound 86]	–
101 to 1000 nM	–	O=C(NCC(O)CN1CCc2ccccc2C1)c1cccc(NC2CCOC2)c1 (stereo not shown) [Compound 45, N-(3-(3,4-dihydroisoquinolin-2(1H)-yl)-2-hydroxypropyl)-3-((tetrahydrofuran-3-yl)amino)benzamide]	–
–	101 to 1000 nM	O=C(NC[C@@H](O)CN1CCc2ccccc2C1)c1cc(NC2COC2)ncn1 [Compound 367]	–
–	–	O=C(O)CCCN1CCN(Cc2cccc(C(=O)NCC(O)CN3CCc4ccccc4C3)c2)CC1 (stereo not shown) [Compound 158]	> 20000 nM
1000 to 10000 nM	–	COCCNc1cccc(C(=O)NCC(O)CN2CCc3ccccc3C2)c1 (stereo not shown) [Compound 72]	–
101 to 1000 nM	–	O=C(NC[C@@H](O)CN1CCc2ccccc2C1)c1cccc(OC2CCOCC2)c1 [Compound 83]	–
101 to 1000 nM	–	O=C(NCC(O)CN1CCc2ccccc2C1)c1cccc(NCCN2CCOCC2)c1 (stereo not shown) [Compound 61]	–

SMILES	EC50 ([1]; Homo sapiens)	EC50 [1]	EC50 (Z-138 cell line)
O=C(NC[C@@H](O)CN1CCc2ccccc2C1)Oc1ccccc1 [Compound 11, (R)-phenyl (3-(3,4-dihydroisoquinolin-2(1H)-yl)-2-hydroxypropyl)carbamate]	1000 to 10000 nM	–	–
